# In patent publication US6638955B2, “Antibiotic oxazolidinone derivatives” (priority 1996, dated 2003):
# What was measured:
# Experiment in all cases: MIC, agar-dilution, standard in-vitro test
# Assay type in all cases: cell-based
# [1] = tested on: Coagulase Negative Staphylococcus MR (methicillin resistant); details: 10^4 CFU/spot, 37° C., 24 hours
# Procedure: (§1) The following results were obtained on a standard in-vitro test system. The activity is described in terms of the minimum inhibitory concentration (MIC) determined by the agar-dilution technique with an inoculum size of 10^4 CFU/spot.
# (§2) Staphylococci were tested on agar, using an inoculum of 10^4 CFU/spot and an incubation temperature of 37° C. for 24 hours—standard test conditions for the expression of methicillin resistance.
# [2] = tested on: Coagulase Negative Staphylococcus MS (methicillin sensitive); details: 10^4 CFU/spot, 37° C., 24 hours
# Procedure: as §1, §2
# [3] = tested on: Staphylococcus aureus MRQR (methicillin resistant quinolone resistant); details: 10^4 CFU/spot, 37° C., 24 hours
# Procedure: as §1, §2
# [4] = tested on: Staphylococcus aureus MRQS (methicillin resistant quinolone sensitive); details: 10^4 CFU/spot, 37° C., 24 hours
# Procedure: as §1, §2
# [5] = tested on: Staphylococcus aureus Novb. Res (Novobiocin resistant); details: 10^4 CFU/spot, 37° C., 24 hours
# Procedure: as §1, §2
# [6] = tested on: Staphylococcus aureus Oxford; details: 10^4 CFU/spot, 37° C., 24 hours
# Procedure: as §1, §2
# [7] = tested on: Enterococcus faecalis; details: agar with 5% defibrinated horse blood, 10^4 CFU/spot, 37° C., 5% carbon dioxide, 48 hours
# Procedure: as §1
# (§3) Streptococci and enterococci were tested on agar supplemented with 5% defibrinated horse blood, an inoculum of 10^4 CFU/spot and an incubation temperature of 37° C. in an atmosphere of 5% carbon dioxide for 48 hours—blood is required for the growth of some of the test organisms.
# [8] = tested on: Streptococcus pyogenes C203; details: agar with 5% defibrinated horse blood, 10^4 CFU/spot, 37° C., 5% carbon dioxide, 48 hours
# Procedure: as §1, §3
# [9] = tested on: Bacillus subtilis; details: 10^4 CFU/spot
# Description: as §1
smiles,measurement,setting,value
"CC(=O)NC[C@H]1CN(c2ccc(C3=CCN(C(=O)OC(C)(C)C)CC3)cc2)C(=O)O1 [Example 1, N-((5S)-3-(4-(1-tert-butoxycarbonyl-1,2,5,6-tetrahydropyrid-4-yl)phenyl)-2-oxoxazolidin-5yl-methyl)acetamide]",MIC,[1],1.0 µg/mL
same,MIC,[2],0.25 µg/mL
same,MIC,[3],0.5 µg/mL
same,MIC,[4],0.5 µg/mL
same,MIC,[5],0.5 µg/mL
same,MIC,[6],1.0 µg/mL
same,MIC,[7],1.0 µg/mL
same,MIC,[8],1.0 µg/mL
same,MIC,[9],0.25 µg/mL
